Results taken from the supplement of paper PMC10477900.
Where a name gives a salt, the structure may show the parent alone.

Experiments:
[1] = system: HCT116; details: 72 h
Protocol: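 HCT116 control and MTA1-KO (CRISPR) HCT116 cells were seeded in 384-well plates (800 cells/well), treated 16 h later with 237 metabolism-related anticancer drugs at five doses (10 uM, 2 uM, 400 nM, 80 nM, 16 nM) for 72 h, two replicates; viability by CCK8. Values are % inhibition of viability relative to untreated cells, plus fitted IC50.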

[2] = system: HCT116; assay: viability inhibition vs untreated; higher = more cytotoxic; details: 72 h

SMILES | IC50 ([1]; genotype: MTA1-KO) | IC50 ([1]; genotype: control) | viability inhibition ([2]; genotype: MTA1-KO, 16 nM) | viability inhibition ([2]; genotype: MTA1-KO, 80 nM) | viability inhibition ([2]; genotype: MTA1-KO, 400 nM) | viability inhibition ([2]; genotype: MTA1-KO, 2000 nM) | viability inhibition ([2]; genotype: MTA1-KO, 10000 nM) | viability inhibition ([2]; genotype: control, 16 nM) | viability inhibition ([2]; genotype: control, 80 nM) | viability inhibition ([2]; genotype: control, 400 nM) | viability inhibition ([2]; genotype: control, 2000 nM) | viability inhibition ([2]; genotype: control, 10000 nM)
CC(C)[C@]12O[C@H]1[C@@H]1O[C@]13[C@]1(O[C@H]1C[C@H]1C4=C(CC[C@@]13C)C(=O)OC4)[C@@H]2O [Triptolide] | < 0.016 µM | < 0.016 µM | 58.4% | 92.8% | 88.9% | 90.8% | 92.2% | 67.7% | 105% | 90.1% | 89.5% | 91.8%
COC(=O)Nc1ccc(-c2nc(N3CCOCC3)c3cnn(C4CCN(C(=O)OC)CC4)c3n2)cc1 [WYE354] | 2.79 µM | > 10 µM | 2.45% | -4.99% | -5.74% | 4.61% | 59.8% | -11.9% | -23.4% | -20.1% | -21.3% | 40.4%
Cc1ccccc1C(=O)N1CCc2cc(-c3nc(NC(=O)Cc4ccc5c(c4)OCO5)sc3C)ccc21 [ML385] | > 10 µM | > 10 µM | 4.66% | -3.65% | -2.81% | 0.224% | 49.3% | 3.74% | -1.5% | 2.66% | -0.526% | 29.4%
O=[N+]([O-])c1ccc(Nc2nc(N3CCOCC3)nc(N3CCOCC3)n2)cc1 [MHY1485] | > 10 µM | 4.59 µM | 7.65% | 14.4% | 13.3% | 8.16% | 45.5% | -9.75% | 7.66% | 14.9% | 23.1% | 74.8%
CC1=NS(=O)(=O)c2cc(Cl)ccc2N1 [Diazoxide] | > 10 µM | > 10 µM | 7.55% | 5.32% | 16.2% | 16% | 35.1% | 3.13% | 23.2% | 0.951% | 4.98% | 3.64%
COC(=O)[C@@H](N)CCCN=C(N)N[N+](=O)[O-] [L-NAME hydrochloride] | > 10 µM | > 10 µM | -9.14% | -19.4% | -19.9% | -26% | 24.3% | -17.9% | -12.2% | -11.4% | -20.1% | -19.3%
CC(=O)O[C@H]1[C@H]2O[C@]23[C@@H]2CC[C@@H]4C[C@@H](O)CC[C@]4(C)[C@H]2CC[C@]3(C)[C@H]1c1ccc(=O)oc1 [Cinobufagin] | < 0.016 µM | 0.0795 µM | 51.8% | 51.6% | 84.4% | 88.9% | 92.1% | 19.9% | 58.1% | 96.5% | 96.5% | 94.8%
CN(Cc1cnc2nc(N)nc(N)c2n1)c1ccc(C(=O)N[C@@H](CCC(=O)O)C(=O)O)cc1 [Methotrexate] | > 10 µM | 8.92 µM | 7.18% | -2.93% | -6.45% | -1.18% | 33% | 17.9% | 13.5% | 16.6% | 6.71% | 63.6%
c1cc(-c2cnn3cc(-c4ccc(OCCN5CCCCC5)cc4)cnc23)ccn1 [Dorsomorphin] | > 10 µM | > 10 µM | 1.25% | -13.4% | -12.4% | -11.7% | -1.25% | 19.5% | 29.9% | 18.4% | 20.9% | 19.6%
